Results: PubChem BioAssay AID1963875 (Molecular Pharmacology Branch, DTP, NCI, 2024)

Test system: KRAS-mutant PDC complex spheroid viability
Assay: Anticancer human tumor 186277-243-T-J2-PDC patient-derived colon adenocarcinoma cell line growth inhibition [KRAS2]
Conditions: for IC50: curve of first compound; for viability, T/C: stronger effect = lower value
Source text: Multicellular complex tumor spheroid response to RAS pathway inhibitors in combination with a targeted agents in patient-derived cell lines with oncogenic KRAS variants from multiple cancer types
A high-throughput screen of multi-cell type tumor spheroids was designed to identify active combinations of targeted small molecules and KRAS pathway inhibitors. Complex spheroids include a stromal component modeled by human endothelial cells (HUVEC) and fibroblasts modeled by human mesenchymal stem cells (MSCs). The concentration ranges selected for each drug and investigational agent were based upon clinically achievable concentrations if the clinical Cmax of the agent was known.
Compounds. The drugs and investigational agents: BI-3406 (NSC825286), BAY-293 (NSC824723), batoprotafib (TNO155; NSC825523), sotorasib (AMG 510; NSC818433), MRTX1257 (NSC819558), elimusertib (BAY 1895344; NSC800525), molibresib (GSK525762; NSC774829), temuterkib (LY3214996; NSC803410), venetoclax (NSC766270), alisertib (NSC759677), olaparib (NSC753686), talazoparib (NSC767125), erdafitinib (NSC781556), ipatasertib (NSC767898), cabozantinib (NSC761068), nintedanib (NSC756659), abemaciclib (NSC768073), docetaxel (NSC628503), trametinib (NSC758246), and sapanisertib (NSC764658) were obtained from the National Cancer Institute (NCI) Developmental Therapeutics Program Chemical Repository. The FDA-approved anticancer drug set is available from the Developmental Therapeutics Program. […] The stock solutions were prepared in dimethyl sulfoxide (DMSO, Sigma-Aldrich, St. Louis, MO, cat. D2650) at 800-fold the tested concentration and stored at -70 degrees C prior to their use. All drugs and investigational agents were tested over a range starting from a high concentration at or near the clinical Cmax and decreasing in half-log increments. If the clinical Cmax for an agent had not been determined, the highest concentration tested was 10 microM.
Cell Culture. All cells were maintained in an incubator at 37 degrees C and 5% CO2 with 95% humidity. The PDC lines were cultured according to standard operating procedures established by the NCI PDMR (https://pdmr.cancer.gov/sops/default.htm). Briefly, all PDCs were thawed and cultured in Matrigel-coated flasks prepared with a working solution of 1X Ham's F-12 nutrient mix, without supplementation (Invitrogen, Waltham, MA, cat. 11765054), 100 U/mL penicillin-streptomycin (Invitrogen, cat. 15140122), and 2.5% Matrigel (Corning Inc., Corning, NY, cat. 354248) for the first three passages. All PDCs were cultured in complete DMEM/F-12 media containing advanced DMEM/F-12 (Invitrogen, cat. 12634028), 4.9% defined fetal bovine serum, heat inactivated (HyClone Laboratories Inc., Logan, UT, cat. SH30070.03HI), 389 ng/mL hydrocortisone (Sigma-Aldrich, cat. H4001), 9.7 ng/mL human EGF recombinant protein (Invitrogen, cat. PHG0313), 23.4 microg/mL adenine (Sigma-Aldrich, cat. A2786), 97.3 U/mL penicillin-streptomycin (Invitrogen, cat. 15140122), 1.9 mM L-glutamine (Invitrogen, cat. 25030081), and 9.7 microM Y-27632 dihydrochloride (Tocris Bioscience, Bristol, United Kingdom, cat. 1254). The PDCs were cultured in complete DMEM/F12 media without 9.7 microM Y-27632 dihydrochloride for at least two passages prior to the screen. The established cell line HOP-62 was cultured in RPMI 1640 medium, HEPES (Invitrogen, cat. 22400105) with 10% defined fetal bovine serum (HyClone Laboratories Inc., cat. SH30070.03) and 2 mM L-glutamine (Invitrogen, cat. 25030081). The pooled donor HUVEC were cultured in endothelial cell growth medium 2 (PromoCell, Heidelberg, Germany, cat. C-22011) and the hMSC were cultured in mesenchymal stem cell growth medium 2 (PromoCell, cat. C-28009). For all experiments, HUVEC and hMSC were used at passages </=5, while the malignant cell lines were used at passages </=15. […]

[1] = second compound 0.1 µM, first compound 0.000316 µM
[2] = second compound 0.1 µM, first compound 0.001 µM
[3] = second compound 0.1 µM, first compound 0.00316 µM
[4] = second compound 0.1 µM, first compound 0.01 µM
[5] = second compound 0.1 µM, first compound 0.0316 µM
[6] = second compound 0.316 µM, first compound 0.000316 µM
[7] = second compound 0.316 µM, first compound 0.001 µM
[8] = second compound 0.316 µM, first compound 0.00316 µM
[9] = second compound 0.316 µM, first compound 0.01 µM
[10] = second compound 0.316 µM, first compound 0.0316 µM
[11] = second compound 1 µM, first compound 0.000316 µM
[12] = second compound 1 µM, first compound 0.001 µM
[13] = second compound 1 µM, first compound 0.00316 µM
[14] = second compound 1 µM, first compound 0.01 µM
[15] = second compound 1 µM, first compound 0.0316 µM
[16] = second compound 3.16 µM, first compound 0.000316 µM
[17] = second compound 3.16 µM, first compound 0.001 µM
[18] = second compound 3.16 µM, first compound 0.00316 µM
[19] = second compound 3.16 µM, first compound 0.01 µM
[20] = second compound 3.16 µM, first compound 0.0316 µM
[21] = second compound 10 µM, first compound 0.000316 µM
[22] = second compound 10 µM, first compound 0.001 µM
[23] = second compound 10 µM, first compound 0.00316 µM
[24] = second compound 10 µM, first compound 0.01 µM
[25] = second compound 10 µM, first compound 0.0316 µM
[26] = second compound 0.1 µM, first compound 0.1 µM
[27] = second compound 0.316 µM, first compound 0.1 µM
[28] = second compound 1 µM, first compound 0.1 µM
[29] = second compound 3.16 µM, first compound 0.1 µM
[30] = second compound 10 µM, first compound 0.1 µM
[31] = second compound 0.1 µM, first compound 0.316 µM
[32] = second compound 0.1 µM, first compound 1 µM
[33] = second compound 0.316 µM, first compound 0.316 µM
[34] = second compound 0.316 µM, first compound 1 µM
[35] = second compound 1 µM, first compound 0.316 µM
[36] = second compound 1 µM, first compound 1 µM
[37] = second compound 3.16 µM, first compound 0.316 µM
[38] = second compound 3.16 µM, first compound 1 µM
[39] = second compound 10 µM, first compound 0.316 µM
[40] = second compound 10 µM, first compound 1 µM
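Throughout, for viability, T/C: viability read after seven days of compound exposure; 100% = DMSO vehicle-treated spheroids so lower means less viable.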

CC(=O)Nc1cccc(-n2c(=O)n(C3CC3)c(=O)c3c(Nc4ccc(I)cc4F)n(C)c(=O)c(C)c32)c1 + COc1cc2nc(C)nc(NC(C)c3cc(N)cc(C(F)(F)F)c3)c2cc1OC1CCOC1
IC50 (second compound 0.1 µM): 0.000458 µM
IC50 (second compound 0.316 µM): 0.000343 µM
IC50 (second compound 1 µM): 0.000298 µM
IC50 (second compound 3.16 µM): 0.000226 µM
IC50 (second compound 10 µM): < 0.0001 µM
viability, T/C (second compound 0.1 µM, first compound 0.0001 µM): 116%
viability, T/C [1]: 68.2%
viability, T/C [2]: 11.4%
viability, T/C [3]: 4.55%
viability, T/C [4]: 1.94%
viability, T/C [5]: 1.13%
viability, T/C (second compound 0.316 µM, first compound 0.0001 µM): 108%
viability, T/C [6]: 53%
viability, T/C [7]: 10.2%
viability, T/C [8]: 3.15%
viability, T/C [9]: 2.07%
viability, T/C [10]: 1.01%
viability, T/C (second compound 1 µM, first compound 0.0001 µM): 118%
viability, T/C [11]: 46.3%
viability, T/C [12]: 8.75%
viability, T/C [13]: 4.43%
viability, T/C [14]: 1.55%
viability, T/C [15]: 1.02%
viability, T/C (second compound 3.16 µM, first compound 0.0001 µM): 108%
viability, T/C [16]: 26%
viability, T/C [17]: 6.24%
viability, T/C [18]: 2.83%
viability, T/C [19]: 1.04%
viability, T/C [20]: 0.82%
viability, T/C (second compound 10 µM, first compound 0.0001 µM): 13.9%
viability, T/C [21]: 3.04%
viability, T/C [22]: 1.39%
viability, T/C [23]: 0.49%
viability, T/C [24]: 0.21%
viability, T/C [25]: 0.23%

CN(C)C/C=C/C(=O)Nc1cc2c(Nc3ccc(F)c(Cl)c3)ncnc2cc1O[C@H]1CCOC1 + C=CC(=O)N1CCN(c2nc(=O)n(-c3c(C)ccnc3C(C)C)c3nc(-c4c(O)cccc4F)c(F)cc23)C(C)C1
IC50 (second compound 0.1 µM): > 0.1 µM
IC50 (second compound 0.316 µM): > 0.1 µM
IC50 (second compound 1 µM): > 0.1 µM
IC50 (second compound 3.16 µM): > 0.1 µM
IC50 (second compound 10 µM): 0.0498 µM
viability, T/C [1]: 105%
viability, T/C [2]: 93.7%
viability, T/C [3]: 106%
viability, T/C [4]: 102%
viability, T/C [5]: 122%
viability, T/C [26]: 109%
viability, T/C [6]: 95.8%
viability, T/C [7]: 97.7%
viability, T/C [8]: 99.5%
viability, T/C [9]: 98.4%
viability, T/C [10]: 107%
viability, T/C [27]: 112%
viability, T/C [11]: 91.2%
viability, T/C [12]: 106%
viability, T/C [13]: 91.5%
viability, T/C [14]: 101%
viability, T/C [15]: 113%
viability, T/C [28]: 105%
viability, T/C [16]: 93.1%
viability, T/C [17]: 103%
viability, T/C [18]: 100%
viability, T/C [19]: 98.1%
viability, T/C [20]: 97.7%
viability, T/C [29]: 74.4%
viability, T/C [21]: 79.9%
viability, T/C [22]: 68.8%
viability, T/C [23]: 77.3%
viability, T/C [24]: 66.3%
viability, T/C [25]: 55.2%
viability, T/C [30]: 40.6%

CCN1CCN(Cc2ccc(Nc3ncc(F)c(-c4cc(F)c5nc(C)n(C(C)C)c5c4)n3)nc2)CC1 + CNCc1ccccc1-c1csc(C(C)Nc2nc(C)nc3cc(OC)c(OC)cc23)c1
IC50 (second compound 0.1 µM): > 1 µM
IC50 (second compound 0.316 µM): 0.97 µM
IC50 (second compound 1 µM): 0.687 µM
IC50 (second compound 3.16 µM): 0.115 µM
IC50 (second compound 10 µM): < 0.00316 µM
viability, T/C [3]: 97.5%
viability, T/C [4]: 86.7%
viability, T/C [5]: 93%
viability, T/C [26]: 117%
viability, T/C [31]: 171%
viability, T/C [32]: 72.5%
viability, T/C [8]: 87%
viability, T/C [9]: 91.3%
viability, T/C [10]: 106%
viability, T/C [27]: 144%
viability, T/C [33]: 144%
viability, T/C [34]: 48.3%
viability, T/C [13]: 90%
viability, T/C [14]: 85.5%
viability, T/C [15]: 96.2%
viability, T/C [28]: 132%
viability, T/C [35]: 119%
viability, T/C [36]: 23.6%
viability, T/C [18]: 80.7%
viability, T/C [19]: 85.4%
viability, T/C [20]: 118%
viability, T/C [29]: 56%
viability, T/C [37]: 14%
viability, T/C [38]: 0.14%
viability, T/C [23]: 0.18%
viability, T/C [24]: 0.37%
viability, T/C [25]: 0.19%
viability, T/C [30]: 0.15%
viability, T/C [39]: 0.41%
viability, T/C [40]: 0.15%

CCNC(=O)CC1N=C(c2ccc(Cl)cc2)c2cc(OC)ccc2-n2c(C)nnc21 (stereo not given) + CNCc1ccccc1-c1csc(C(C)Nc2nc(C)nc3cc(OC)c(OC)cc23)c1
IC50 (second compound 0.1 µM): > 10 µM
IC50 (second compound 0.316 µM): > 10 µM
IC50 (second compound 1 µM): 5.55 µM
IC50 (second compound 3.16 µM): 0.379 µM
IC50 (second compound 10 µM): < 0.0316 µM
viability, T/C [5]: 106%
viability, T/C [26]: 110%
viability, T/C [31]: 123%
viability, T/C [32]: 149%
viability, T/C (second compound 0.1 µM, first compound 3.16 µM): 111%
viability, T/C (second compound 0.1 µM, first compound 10 µM): 70.6%
viability, T/C [10]: 106%
viability, T/C [27]: 111%
viability, T/C [33]: 138%
viability, T/C [34]: 127%
viability, T/C (second compound 0.316 µM, first compound 3.16 µM): 84.9%
viability, T/C (second compound 0.316 µM, first compound 10 µM): 58.1%
viability, T/C [15]: 98.9%
viability, T/C [28]: 112%
viability, T/C [35]: 146%
viability, T/C [36]: 106%
viability, T/C (second compound 1 µM, first compound 3.16 µM): 62.3%
viability, T/C (second compound 1 µM, first compound 10 µM): 37.6%
viability, T/C [20]: 98.6%
viability, T/C [29]: 108%
viability, T/C [37]: 59.2%
viability, T/C [38]: 1.92%
viability, T/C (second compound 3.16 µM, first compound 3.16 µM): 0.58%
viability, T/C (second compound 3.16 µM, first compound 10 µM): 0.76%
viability, T/C [25]: 0.22%
viability, T/C [30]: 0.22%
viability, T/C [39]: 0.17%
viability, T/C [40]: 0.12%
viability, T/C (second compound 10 µM, first compound 3.16 µM): 0.11%
viability, T/C (second compound 10 µM, first compound 10 µM): 0.34%
